Experimental data reported in US5051417A, “Indolythiadiazines for treating heart failure” (Les Laboratoires Beecham S.A., priority 1988, dated 1991).

What was measured:
canine cardiac PDE, CAM = assay: Canine cardiac PDE inhibition, CAM; assay type: biochemical; details: n in table
anaesthetised dog = assay: Cardiotonic activity in the dog (haemodynamics); assay type: in vivo, dog (male Beagle); details: i.v.
[1] = test system: canine cardiac myofibrillar Ca++-dependent Mg++-ATPase; assay: Measurement of myofibrillar Ca++-dependent Mg++-ATPase activity on canine cardiac myofibrils; assay type: biochemical; details: pH 7.0, 21° C.; for max (percent change of maximal ATPase activity): pCa=5.47
Procedure: 1. Measurement of myofibrillar Ca++-dependent Mq++-ATPase activity The effect on myofibrillar Ca++sensitivity and on maximal activity of myofibrillar Ca++-dependent Mg++-ATPase was determined on canine cardiac myofibrils. (a) Contractile protein preparation Cardiac myofibrils free of membrane contaminants were prepared from left ventricular tissue of dog hearts using a modification of the method described by SOLARO et al, Biochem. Biophys. Acta, 245, 259-262, (1971). Before centrifugation, the heart homogenate was filtered through gauze. After Triton X-100 treatments, the myofibrillar fraction was washed once by resuspension and centrifugation in 10 volumes of 1 mM EGTA, […], 30 mM imidazole, 2 mM MgCl2, pH 7.0. The pellet was then washed three times in 10 volumes of the same buffer without EGTA. Before the last centrifugation, the suspension of myofibrils was filtered through a stainless steel sieve with 0.25 mm meshes. Myofibrils were kept in pellet overnight. Before use, the pellet was suspended in a small amount of buffer, the protein concentration was determined by the method of BRADFORD M., Anal. Biochem., 1976, 72, 248 and adjusted in order to have a concentration between 6 and 7 mg/ml. (b) Myofibrillar ATPase activity Ca++-dependent myfibrillar ATPase activity was determined at 21° C., pH 7.0, by measuring the rate of release of inorganic phosphate. All assays were performed within 24hrs. of final purification, using the method described by SOLARO and […]., 51. 290-4,(1982). Reaction mixtures (4 ml) containing 0.6-0.7 mg/ml myofibrillar protein, 80mM KCl, 20 mM imidazole, 3 mM MgCl2, 1 mM EGTA, the desired amount of CaCl2, and the indicated concentration of drug or appropriate vehicle were preincubated for 6 min. prior to assay. The amount of CaCl2 was varied between 0 and 0.9 mM and the pCa (-log free Ca++) computed using 2.514×10^6 M^-1 as the apparent affinity of Ca++for EGTA at pH 7.0. Reactions were initiated by the addition of Na2 ATP to final concentration of 2 mM. After an incubation period of 12 min., reactions were quenched by the addition of an equal volume of ice-cold 10% trichloroacetic acid. The protein was pelleted by centrifugation (2000 g, 15 min.) and Pi was assayed in the supernatant fraction using a modification of the method described by LANZETTA et al, Anal. Biochem., 100, 95-97, (1979). The following solutions were prepared: (1) 3.7% ammonium heptamolybdate in 0.12 N H2 SO4 (2) 0.074% malachite green oxalate in 1% polyvinylic alcohol. The colour reagent was prepared by mixing an equal volume of solution (1) and (2) 15 min. before the assay. For the assay, 1,700 μl of 1% H2 SO4 and 1 ml of colour reagent were added to 100 μl of sample. Colour development occurred at room temperature for 30 min. and was quenched by the addition of 200 μl of 1M tri-potassium citrate. The absorbance was measured at 620 millimicrons. The effect of each compound, tested at the indicated concentration, on the relation between pCa and percent activation was determined taking 100% for the maximum ATPase activity obrained with vehicle alone. The effect on Ca++sensitivity was quantified by measuring the shift of the pCa giving 50% of the maximal control ATPase activity. The effect on maximal ATPase activity was expressed as the percent change of ATPase activity for pCa=5.47. Mean effects on myofibrillar ATPase activity were obtained from 1 to 5 preparations, (compounds tested at 2×10^-4 M).

canine cardiac PDE, CGI = molecular target: T1, canine cardiac PDE, CGI (Canis lupus familiaris, UniProt A0A8I3NYE0); assay: Canine cardiac PDE inhibition, CGI; assay type: biochemical; details: n in table
T1 construct: CANINE CARDIAC PDE; from tissue; host or cells: dog heart
T1 sequence (A0A8I3NYE0 1-1135): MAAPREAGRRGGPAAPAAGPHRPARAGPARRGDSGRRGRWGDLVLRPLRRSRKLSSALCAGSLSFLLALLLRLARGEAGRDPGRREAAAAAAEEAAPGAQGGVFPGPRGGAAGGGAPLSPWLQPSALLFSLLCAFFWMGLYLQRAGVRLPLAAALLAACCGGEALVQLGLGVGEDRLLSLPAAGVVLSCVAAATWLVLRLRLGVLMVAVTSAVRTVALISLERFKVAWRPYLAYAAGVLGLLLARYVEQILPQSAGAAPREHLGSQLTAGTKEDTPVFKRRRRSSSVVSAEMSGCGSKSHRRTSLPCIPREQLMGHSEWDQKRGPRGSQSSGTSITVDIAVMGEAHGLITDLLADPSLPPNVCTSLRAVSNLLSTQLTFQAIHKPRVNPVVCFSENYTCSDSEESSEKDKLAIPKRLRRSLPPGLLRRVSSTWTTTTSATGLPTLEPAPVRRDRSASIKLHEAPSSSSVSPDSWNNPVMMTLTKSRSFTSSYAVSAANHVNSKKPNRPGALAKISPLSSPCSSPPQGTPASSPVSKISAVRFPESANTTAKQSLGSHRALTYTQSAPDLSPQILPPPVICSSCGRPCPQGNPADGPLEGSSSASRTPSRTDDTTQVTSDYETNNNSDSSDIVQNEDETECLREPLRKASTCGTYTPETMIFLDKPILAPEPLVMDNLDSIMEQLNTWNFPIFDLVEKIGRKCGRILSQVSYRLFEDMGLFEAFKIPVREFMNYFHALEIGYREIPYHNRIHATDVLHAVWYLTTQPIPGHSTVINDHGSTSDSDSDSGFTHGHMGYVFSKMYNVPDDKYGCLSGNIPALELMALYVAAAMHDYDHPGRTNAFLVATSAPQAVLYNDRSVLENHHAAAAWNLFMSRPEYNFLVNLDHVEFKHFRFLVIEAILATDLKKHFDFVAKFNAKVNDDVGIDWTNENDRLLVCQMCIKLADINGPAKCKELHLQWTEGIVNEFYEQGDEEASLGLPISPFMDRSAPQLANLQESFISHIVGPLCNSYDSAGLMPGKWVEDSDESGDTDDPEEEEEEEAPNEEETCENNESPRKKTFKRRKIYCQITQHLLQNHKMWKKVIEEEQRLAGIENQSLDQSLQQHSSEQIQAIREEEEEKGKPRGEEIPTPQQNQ

[2] = Stability in presence of air; assay type: physicochemical; details: free base
Procedure: However, the compounds can usually be stabilised by converting them to a salt form.
1 g (2.8mmol) 1,3-Dihydro-5-(3,6-dihydro-6-methyl-2-oxo-2H -1,3,4-thiadiazin-5-yl)-3-phenylimino-2H-indol-2-one (E6) and 1.87 g (28mmol) powdered zinc in 20 ml glacial acetic acid were refluxed for 10 minutes. The excess of zinc was removed by filtration and washed with acetic acid. 100 ml water were added to the filtrate and the precipitate was filtered, washed with water until neutral, and dried under vacuum. […] The crystals of the free base were suspended in a 1/5 mixture of methanol/ethyl ether (30 ml) and about 5 ml of a saturated solution of HCl gas in ethyl ether were added. After 1 hour of stirring, the white precipitate was filtered off, washed with ether and dried.

Row | SMILES | IC50 (canine cardiac PDE, CAM) | AoBF (anaesthetised dog; 0.1 mg/kg) | AoBP (anaesthetised dog; 0.1 mg/kg) | H.R. (anaesthetised dog; 0.1 mg/kg) | dP/dt Max (anaesthetised dog; 0.1 mg/kg) | AoBF (anaesthetised dog; 0.3 mg/kg) | AoBP (anaesthetised dog; 0.3 mg/kg) | H.R. (anaesthetised dog; 0.3 mg/kg) | dP/dt Max (anaesthetised dog; 0.3 mg/kg) | AoBF (anaesthetised dog; 1.0 mg/kg) | AoBP (anaesthetised dog; 1.0 mg/kg) | H.R. (anaesthetised dog; 1.0 mg/kg) | dP/dt Max (anaesthetised dog; 1.0 mg/kg) | max (percent change of maximal ATPase activity) ([1]; 10 μM) | pCa (shift of the pCa giving 50% of the maximal control ATPase activity; Ca++ sensitivity) ([1]; 10 μM) | max (percent change of maximal ATPase activity) ([1]; 30 μM) | pCa (shift of the pCa giving 50% of the maximal control ATPase activity; Ca++ sensitivity) ([1]; 30 μM) | IC50 (canine cardiac PDE, CGI) | AoBF (anaesthetised dog; 3.0 mg/kg) | AoBP (anaesthetised dog; 3.0 mg/kg) | further results
1 | CC1SC(=O)NN=C1c1ccc2c(c1)C(=NO)C(=O)N2 (stereo not shown) [Example 1, 1,3-Dihydro-5-(3,6-dihydro-6-methyl-2-oxo-2H-1,3,4-thiadiazin-5-yl)-3-hydroxyimino-2H-indol-2-one] | 7900 nM | +8% | +4% | +13% | +31% | +16% | -9% | +30% | +54% | +33% | -20% | +55% | 128% | +5 ± 0% | 0.19 ± 0.09 | +1 ± 2% | 0.25 ± 0.07 | 660 nM | – | – | –
2 | CON=C1C(=O)Nc2ccc(C3=NNC(=O)SC3C)cc21 (stereo not shown) [Example 2, 1,3-Dihydro-5-(3,6-dihydro-6-methyl-2-oxo-2H,1,3,4 thiadiazin-5-yl)-3-methoxyimino-2H-indol-2-one] | 6900 nM | +8 ± 2% | +4 ± 2% | +13 ± 8% | +31 ± 9% | +16 ± 1% | -9 ± 1% | +26 ± 10% | +54 ± 20% | +33 ± 5% | -20 ± 5% | +55 ± 21% | +128 ± 56% | +5 ± 2% | 0.24 ± 0.01 | +13 ± 4% | 0.60 ± 0.11 | 1300 nM | – | – | –
3 | COC(=S)NN=C1C(=O)Nc2ccc(C3=NNC(=O)SC3C)cc21 (stereo not shown) [Example 3, O-Methyl 2-[2,3-dihydro-5-(3,6-dihydro-6-methyl-2-oxo-2H -1,3,4-thiadiazin-5-yl)-2-oxo-1H-indol-3-ylidene]-hydrazine carbothioate] | > 300000 nM | -30 ± 12% | -14 ± 7% | +28 ± 6% | +17 ± 6% | -63 ± 8% | -29 ± 6% | +54 ± 11% | +70 ± 5% | -50 ± 12% | -30 ± 1% | +93 ± 7% | +126 ± 9% | – | – | +3 ± 3% | +0.33 ± 0.05 | 270 nM | – | – | –
4 | CC1SC(=O)NN=C1c1ccc2c(c1)C(=NNc1ccccc1)C(=O)N2 (stereo not shown) [Example 5, 5-(3,6-Dihydro-6-methyl-2-oxo-2H-1,3,4-thiadiazin-5-yl)-1H -indole-2,3-dione 3-phenylhydrazone] | > 300000 nM | -25 ± 1% | -14 ± 6% | +8 ± 1% | +7 ± 2% | -34 ± 5% | -12 ± 3% | +18 ± 7% | +24 ± 6% | -28 ± 4% | -12 ± 1% | +19 ± 16% | +42 ± 16% | – | – | – | – | 130 nM | -37 ± 2% | -19 ± 3% | H.R. (anaesthetised dog; 3.0 mg/kg): +58 ± 0%; dP/dt Max (anaesthetised dog; 3.0 mg/kg): +116 ± 31%
5 | CC1SC(=O)NN=C1c1ccc2c(c1)C(Nc1ccccc1)C(=O)N2.Cl (stereo not shown) [Example 8, 1,3-Dihydro-5-(3,6-dihydro-6-methyl-2-oxo-2H-1,3,4-thiadiazin-5-yl)-3-phenylamino-2H-indol-2-one, hydrochloride] | 19000 nM | – | – | – | – | – | – | – | – | – | – | – | – | – | – | 2 ± 3% | +0.87 ± 0.01 | 1200 nM | – | – | stability in presence of air [2]: reverts to the starting material in presence of air
6 | CC1SC(=O)NN=C1c1ccc2c(c1)C(=Cc1ccccc1O)C(=O)N2 (stereo not shown) [Example 17, 1,3-Dihydro-5-(3,6-dihydro-6-methyl-2-oxo-2H-1,3,4-thiadiazin-5-yl)-3-[(2-hydroxyphenyl)methylene]-2H -indol-2-one] | 23000 nM | – | – | – | – | +14 ± 2% | -8 ± 2% | +9 ± 3% | +6 ± 2% | +16 ± 1% | -7 ± 1% | +22 ± 5% | +35 ± 8% | – | – | -16 ± 3% | +0.60 ± 0.07 | 430 nM | +18 ± 4% | -20 ± 7% | H.R. (anaesthetised dog; 3.0 mg/kg): +52 ± 13%; dP/dt Max (anaesthetised dog; 3.0 mg/kg): +81 ± 18%
